Source: paper PMC2579264 (European journal of pharmacology, 2008)
Numbering of substitutions follows the chain as printed.

Tests used:
[1] = system: Chinese hamster ovary (CHO) cells; assay: Loss of cell protein or detachment of cells after digitonin pretreatment; type: cell-based; settings: 10 µM digitonin pretreatment at 25 °C
[2] = molecular target: T1, human neuropeptide Y Y2 receptor, wildtype (P^34D^35) (Homo sapiens, UniProt P49146); assay: Receptor-linked internalization of agonist, wildtype Y2 receptor; type: cell-based; settings: heparin 5 µM, n = 12
T1 sequence (P49146 1-381): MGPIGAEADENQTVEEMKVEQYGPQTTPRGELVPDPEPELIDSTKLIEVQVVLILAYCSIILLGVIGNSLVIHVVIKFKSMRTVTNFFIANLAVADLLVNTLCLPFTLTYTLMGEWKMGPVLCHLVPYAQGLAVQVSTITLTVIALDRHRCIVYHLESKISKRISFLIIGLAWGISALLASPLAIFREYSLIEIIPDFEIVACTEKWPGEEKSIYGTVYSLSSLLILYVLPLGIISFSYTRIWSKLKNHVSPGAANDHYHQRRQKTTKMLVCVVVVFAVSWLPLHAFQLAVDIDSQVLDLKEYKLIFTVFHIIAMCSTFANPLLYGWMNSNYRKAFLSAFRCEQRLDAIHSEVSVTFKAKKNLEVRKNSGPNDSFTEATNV

[3] = molecular target: T2, human neuropeptide Y Y2 receptor, A^34A^35 (Homo sapiens, UniProt P49146, D35A/P34A); assay: Receptor-linked internalization of agonist, A^34A^35 mutant; type: cell-based; settings: heparin 5 µM, n = 12
T2 sequence (P49146 1-381 P34A/D35A): T1 sequence (P49146 1-381) with P34A, D35A

[4] = system: neuropeptide Y Y2 receptor; assay: Effect of heparin on binding of peptide YY; parameters: species or system human; settings: heparin up to 30 µM; cell surface or particulate Y2 receptors
[5] = system: human neuropeptide Y Y2 receptor, wildtype; type: cell-based
[6] = molecular target: T2, human neuropeptide Y Y2 receptor, A^34A^35; assay: Compartmentalization: unmasking / depletion of surface sites, A^34A^35 mutant; type: cell-based
[7] = system: CHO cells expressing the A^34A^35 receptor; assay: Bio-Gel P-4 gel filtration of internalized agonist, A^34A^35 receptor; settings: 100 pM [^125I] peptide YY(3–36); detected by [^125I] label; 2 to 15 min

Compound: C[C@@H]1CC[C@@]2(OC1)O[C@H]1[C@@H](O)[C@H]3[C@@H]4CC[C@H]5C[C@@H](O[C@@H]6O[C@H](CO)[C@H](O[C@@H]7O[C@H](CO)[C@@H](O)[C@H](O[C@@H]8OC[C@@H](O)[C@H](O)[C@H]8O)[C@H]7O[C@@H]7O[C@H](CO)[C@H](O)[C@H](O[C@@H]8O[C@H](CO)[C@@H](O)[C@H](O)[C@H]8O)[C@H]7O)[C@H](O)[C@H]6O)[C@H](O)C[C@]5(C)[C@H]4CC[C@]3(C)[C@H]1[C@@H]2C [digitonin]
- loss of cell protein or detachment of cells [1]: did not result in a loss of cell protein or a detachment of cells

Compound: heparin
- increase of internalization of 100 pM [^125I] peptide YY(3–36) ([2]; 4 min): 19.4 ± 2%
- increase of internalization of 100 pM [^125I] peptide YY(3–36) ([2]; 10 min): 4.8 ± 1.8%
- increase of internalization of 100 pM [^125I] peptide YY(3–36) ([3]; 4 min): 43.5 ± 3.5%
- increase of internalization of 100 pM [^125I] peptide YY(3–36) ([3]; 10 min): 25.1 ± 5%
- effect on affinity and capacity of binding of peptide YY(3–36) [4]: did not affect the affinity and capacity of the binding

Compound: pertussis toxin: pertussis toxin, used to deplete the compartmentalized surface Y2 sites
- basal cell surface binding of [^125I] peptide YY(3–36) after pertussis toxin [5]: did not substantially reduce
- surface sites unmasked by the arsenical after pertussis toxin [5]: strongly reduced
- basal cell surface binding of [^125I] peptide YY(3–36) after pertussis toxin [6]: did not substantially reduce
- surface sites unmasked by the arsenical after pertussis toxin [6]: almost eliminated

Compound: N[C@@H](Cc1ccc(O)cc1)C(=O)O [C-terminal tyrosine, tyrosine]
- accumulation of product of peptide YY processing in cells [7]: no accumulation
